In patent US20150322001A1, “OMEGA-3 ANALOGUES” (The University of Sydney, priority 2012, published 2015):

Tests used:
MDA-MB-231 cells [1] = assay: MTT assay, inhibition of proliferation of MDA-MB-231 cells; format: cell-based, human; details: Homo sapiens, MTT reduction, 24 h
Procedure: The synthesized compounds given in Table 1 were tested for their activity in inhibiting the proliferation of MDA-MB-231 cells.
• 1. Cell culture and cell treatment: Breast cancer MDA-MB-231 cells were maintained in monolayers at 37° C. in DMEM containing penicillin and streptomycin, L-glutamine and 10% fetal bovine serum in an atmosphere of 95% air and 5% CO2. Cells were seeded into multi-well plates at 5×10^4 cells/mL; media was replaced 24 h later with fresh serum-free DMEM containing one of the test compounds in DMSO. DMSO was added to control cells at a final concentration of 0.1%. • 2. MTT assay: MDA-MB-231 cells were seeded in 96 well plates (0.2 mL/well), treated with compounds at 0.01, 0.1, 0.5, 1, 5 and 10 μM for 24 h. MTT (25 μL of 2.5 mg/mL solution) was added to each well for 2 h, after which MTT and media were removed. The blue formazan product formed from MTT by live cells was dissolved in DMSO (100 μL/well) and quantified spectrophotometrically at 540 nm in a multilabel counter. IC50s were calculated using GraphPad Prism (Prism 5.01). • 3. Caspase 3 activity: MDA-MB-231 cells were seeded in 96 well plates (0.2 mL/well), and were treated with compounds at 0.1, 0.5 and 1 μM for 24 h. Caspase 3 activity was quantified using the Caspase-Glo 3/7 assay kit according to manufacturer's protocol (Promega). Briefly, after 24 h treatment, fresh serum-free media was added to wells. Cells were equilibrated at room temperature for 30 min, caspase 3/7 substrate in lysis buffer was added and the luminescence was measured. Relative caspase 3/7 activity was calculated as [(luminescence in treatment−luminescence in control)/luminescence in control×100%]. • 4. Annexin V assay: MDA-MB-231 cells were seeded in 6 well plates (3 mL/well), and were treated with compounds at 0.1, 0.5 and 1 μM for 24 h. The apoptotic cells were quantified by Annexin V staining according to the manufacture's protocol (BD Biosciences). Briefly, after 24 h treatment, the media and harvested cells were collected, followed by PBS washes. Cells were stained with Annexin V and PI in binding buffer for 15 min at room temperature and quantified by flow cytometry (BD Biosciences). The apoptotic cells (%) were calculated as [(Annexin V positive cells in treatment−Annexin V positive cells in control)/Annexin V positive cells in control×100%]. • 5. Matrigel assay: MDA-MB-231 cells were trypsinized and resuspended in serum-free DMEM media (3.5×10^6 cells/mL). The cell suspension was mixed 1:1 with Matrigel solution (Bio Scientific). Aliquots (20 μL containing 3.5×10^4 cells) were placed into 6-well tissue-culture dishes to form well-defined droplets and incubated at 37° C. for 5 min to enable semi-solidification. Migration media was freshly made as DMEM containing 20% fetal bovine serum, epidermal growth factor 10 pg/mL, hydrocortisone 0.4 ng/mL, vascular endothelial growth factor (VEGF, 1 pg/mL), basic fibroblast growth factor (bFGF, 20 pg/mL), insulin-like growth factor-1 (40 pg/mL), ascorbic acid (2 ng/mL) and heparin (45 ng/mL). Compounds were added in migration media (3 mL/well) and plates were then incubated for 24 h. Cells that migrated out of droplets were scored using phase-contrast microscopy and digital image analysis (Olympus). • 6. Real-time RT PCR: Cell droplets from migration assays were collected, and total RNA was extracted using Tri Reagent (Astral Scientific) according to the manufacturer's protocol. RNA samples were treated with DNase (Promega) and gene expression was quantified using an Express Onestep Superscript qRT-PCT kit (Invitrogen) and gene-specific primers: heparanase (forward) […] and (reverse) GCAGCAACTTTGGCATTTC, integrin-α3 (forward) […] and (reverse) […], actin (forward) […] and (reverse) […]. The cycling conditions (Roto-Gene™ 6000; Corbett Research) were as follows: 95° C. (15 min); 40 cycles of denaturation (95° C., 30 s); annealing (60° C., 1 min); elongation (72° C., 1 min). […]

[2] = tested on: human MDA-MB-231 breast cancer cell xenografts; assay: In vivo dose-response study of compound 29, MDA-MB-231 xenografts in nude mice; details: for mouse body weight gain or loss: FIG. 7
Procedure: One of the synthesised compounds given in Table 1 (compound 29, reproduced below) was the subject of an in vivo dose-response study in nude mice with human MDA-MB-231 breast cancer cell xenografts. One group received compound 15 in parallel.
nu/nu Balb/c; Age: 6 weeks at commencement of study; Gender: female
control, compound 29 (2.5 mg/kg), compound 29 (10 mg/kg), compound 29 (40 mg/kg) and compound 15 (10 mg/kg); 5 mice/group
human MDA-MB-231 cells, 4×10^5 cells/100 μl (Matrigel:PBS 1:1)/mouse, subcutaneous injection into the 4th mammary fat pad.
after 4 days animals received compound 29 at 40, 10 and 2.5 mg/kg doses (in corn oil, Sigma, and 8% DMSO), or compound 15 at 10 mg/kg in corn oil at 4% DMSO, 6 days each week, for 38 days. Control: 8% DMSO in corn oil.
weighed six days a week; tumour sizes measured with calipers every 3 to 4 days.

MDA-MB-231 cells [3] = assay: Proapoptotic activity in MDA-MB-231 cells (JC-1 staining, confluence); format: cell-based, human
Procedure: Several of the compounds were tested for the capacity to induce apoptosis in MDA-MB-231 cells (10 μM, 24 hr treatments). […] In view of the finding with compound 29 a concentration-relationship was developed with caspase-3/7 activity (an established marker of apoptosis) as the endpoint (FIG. 11).

MDA-MB-231 cells [4] = assay: Caspase 3 activity (Caspase-Glo 3/7) in MDA-MB-231 cells; format: cell-based, human; details: 0.1 μM, FIG. 1
Procedure: (§1) • 1. Cell culture and cell treatment: Breast cancer MDA-MB-231 cells were maintained in monolayers at 37° C. in DMEM containing penicillin and streptomycin, L-glutamine and 10% fetal bovine serum in an atmosphere of 95% air and 5% CO2. Cells were seeded into multi-well plates at 5×10^4 cells/mL; media was replaced 24 h later with fresh serum-free DMEM containing one of the test compounds in DMSO. DMSO was added to control cells at a final concentration of 0.1%. • 2. MTT assay: MDA-MB-231 cells were seeded in 96 well plates (0.2 mL/well), treated with compounds at 0.01, 0.1, 0.5, 1, 5 and 10 μM for 24 h. […] The blue formazan product formed from MTT by live cells was dissolved in DMSO (100 μL/well) and quantified spectrophotometrically at 540 nm in a multilabel counter. IC50s were calculated using GraphPad Prism (Prism 5.01). • 3. […] Caspase 3 activity was quantified using the Caspase-Glo 3/7 assay kit according to manufacturer's protocol (Promega). […] Cells were equilibrated at room temperature for 30 min, caspase 3/7 substrate in lysis buffer was added and the luminescence was measured. Relative caspase 3/7 activity was calculated as [(luminescence in treatment−luminescence in control)/luminescence in control×100%]. • 4. […] The apoptotic cells were quantified by Annexin V staining according to the manufacture's protocol (BD Biosciences). […]

MDA-MB-231 cells [5] = assay: Annexin V assay (apoptotic cells) in MDA-MB-231 cells; format: cell-based, human; details: FIG. 2
Procedure: as §1

MDA-MB-231 cells [6] = assay: Matrigel assay, migration of MDA-MB-231 cells out of matrigel droplets; format: cell-based, human
Procedure: This supports the finding that these compounds are effective against metastatic cancer cells.
(§2) • 1. Cell culture and cell treatment: Breast cancer MDA-MB-231 cells were maintained in monolayers at 37° C. in DMEM containing penicillin and streptomycin, L-glutamine and 10% fetal bovine serum in an atmosphere of 95% air and 5% CO2. Cells were seeded into multi-well plates at 5×10^4 cells/mL; media was replaced 24 h later with fresh serum-free DMEM containing one of the test compounds in DMSO. DMSO was added to control cells at a final concentration of 0.1%. • 2. MTT assay: MDA-MB-231 cells were seeded in 96 well plates (0.2 mL/well), treated with compounds at 0.01, 0.1, 0.5, 1, 5 and 10 μM for 24 h. […] The blue formazan product formed from MTT by live cells was dissolved in DMSO (100 μL/well) and quantified spectrophotometrically at 540 nm in a multilabel counter. IC50s were calculated using GraphPad Prism (Prism 5.01). • 3. […] Caspase 3 activity was quantified using the Caspase-Glo 3/7 assay kit according to manufacturer's protocol (Promega). […] Cells were equilibrated at room temperature for 30 min, caspase 3/7 substrate in lysis buffer was added and the luminescence was measured. Relative caspase 3/7 activity was calculated as [(luminescence in treatment−luminescence in control)/luminescence in control×100%]. • 4. […]

MDA-MB-468 cells = assay: MTT reduction in MDA-MB-468 cells; format: cell-based; details: compared with MDA-MB-231
MCF-7 cells = assay: MTT reduction in MCF-7 cells; format: cell-based; details: compared with MDA-MB-231
Procedure: These are also breast cancer cell lines, but are less aggressive than the MDA-MD-231 cells.
as §2

Row | SMILES | IC50 (MDA-MB-231 cells [1]) | tumour growth rate and volume at later time points (after day 25) ([2]; 2.5 mg/kg, FIG. 9) | tumour growth ([2]; 10 mg/kg, FIG. 9) | tumour weights versus control and 2.5 mg/kg groups ([2]; 40 mg/kg, day 38) | tumour volumes versus control and 2.5 mg/kg groups ([2]; 40 mg/kg, day 38, FIG. 9) | toxicity of the treatment (growth rates) ([2]; all dose groups, 38 days) | mouse body weight gain or loss ([2]; compound 29 2.5 mg/kg, 38 days) | mouse body weight gain or loss ([2]; compound 29 10 mg/kg, 38 days) | mouse body weight gain or loss ([2]; compound 29 40 mg/kg, 38 days) | tumour foci in the peritoneal cavity ([2]; compound 29-treated mice (2.5, 10, 40 mg/kg), 38 days) | JC-1 staining (mitochondrial damage) (MDA-MB-231 cells [3]; 10 μM, 24 hr, FIG. 10) | confluence of treated cells (MDA-MB-231 cells [3]; FIG. 12) | caspase-3 activity (MDA-MB-231 cells [4]) | Annexin V staining (early apoptosis) (MDA-MB-231 cells [5]) | IC50 (MDA-MB-231 cells [6]; Homo sapiens, MDA-MB-231, matrigel assay, read-out: IC50 (concentration at which migration is inhibited to 50% of control)) | inhibition of MTT reduction (MDA-MB-468 cells) | inhibition of MTT reduction (MCF-7 cells) | migration of cells in the matrigel assay (MDA-MB-231 cells [6]; 10 μM)
1 | O=C(O)CCCCCCCCCCCCCCCNC(=O)Nc1ccc(Cl)c(C(F)(F)F)c1 [Compound 29, 16-({[4-chloro-3-(trifluoromethyl)phenyl]carbamoyl)amino}hexadecanoic acid] | 1.1 µM | larger than the compound 29 (40 mg/kg) group | decreased from day 32 | significantly smaller | significantly smaller | non-toxic | gained weight at a steady and similar rate | gained weight at a steady and similar rate | gained weight at a steady and similar rate | No tumour foci were seen | Increased JC-1 staining | decreased confluence |  |  |  |  |  | 
2 | Cc1ccc(NC(=O)NCCCCCCCCCCCCCCCC(=O)O)cc1 [Compound 16, 16-{[(4-methylphenyl)carbamoyl]amino}hexadecanoic acid] | 0.75 µM |  |  |  |  |  |  |  |  |  |  |  | particularly good | increases this substantially | 3.8 µM |  |  | 
3 | CCNC(=O)NCCCCCCCCCCCCCCCC(=O)O [Compound 19, 16-[(ethylcarbamoyl)amino]hexadecanoic acid] | 1.8 µM |  |  |  |  |  |  |  |  |  |  |  |  |  |  | inhibited MTT reduction | inhibited MTT reduction | 61±5 % of control
